Assay results taken from article PMC10017042 (Science Advances, 2023).
Like-named read-outs stand apart in the source and are kept apart here. Each block holds one compound with its values, some of them ahead of it.

Assays:
HIV-1 = conditions: cited from earlier work
[1] = Plasma drug concentrations (pyrimethamine UPLC-MS/MS, VPA assay, unbound dolutegravir) in trial participants; format: in vivo, human; conditions: human, plasma, 6 hours, read-out: Median unbound dolutegravir concentration
Protocol: Self-reported adherence was assessed at each study visit, and empty pill strips were collected after the 2-week intervention phase. […] A gradient (0.3 ml/min) with two eluents was used (A: 2 mM ammonium acetate + 0.1% formic acid in water; B: 2 mM ammonium acetate + 0.1% formic acid in methanol). […] For measurement validation, we performed linearity, correctness, LOD and lower LOQ, repeatability, reproducibility, measurement uncertainty, robustness, and carryover. […] Unbound dolutegravir plasma concentrations were quantified with a validated UPLC-MS/MS bioquantification method as previously described ([61]).

Compound: O=C(CCCCCCC(=O)Nc1ccccc1)NO [vorinostat]
Mean fold increase in CA US HIV-1 RNA (HIV-1; at time points during vorinostat): 2.6 fold
HIV-1 reactivation (HIV-1; combined with a T cell-inducing HIV-1 vaccine in PLWH who initiated cART during acute HIV-1): No reactivation
Fold change in CA US HIV-1 RNA (HIV-1; vorinostat treatment in postmenopausal women): 1.5 fold

Compound: C/C=C1\NC(=O)[C@H]2CSSCC/C=C/[C@H](CC(=O)N[C@H](C(C)C)C(=O)N2)OC(=O)[C@H](C(C)C)NC1=O [romidepsin]
Effect on HIV-1 transcription (HIV-1; additional pharmacodynamics studies): no significant effect
Increase in CA US HIV-1 RNA (HIV-1; initial studies): approximately threefold

concentration at 6 h ([1]; those with pyrimethamine exposure): 11.7 ng/mL
concentration at 6 h ([1]; those without pyrimethamine exposure): 10.1 ng/mL
Compound: C[C@@H]1CCO[C@H]2Cn3cc(C(=O)NCc4ccc(F)cc4F)c(=O)c(O)c3C(=O)N12 [dolutegravir]
